Blank lines part the entries; values can stand above or below the compound they belong to.
Legend:
[1] = Storage stability of sepiapterin polymorph forms, HPLC purity; type: physicochemical; set-up: Impurity RRT 1.06 (HPLC) / Impurity RRT 1.08 (HPLC) / Impurity RRT 1.17 (HPLC) / Impurity RRT 1.21 (HPLC) / Impurity RRT 1.25 (HPLC) / Impurity RRT 0.62 (HPLC) / Impurity RRT 0.89 (HPLC) / Impurity RRT 0.95 (HPLC) / Impurity RRT 0.60 (HPLC): unit not given here; details: for Purity of initial samples by HPLC: before storage; for Stability on storage as determined by HPLC, comparison of forms in words: storage up to 4 weeks at RT
Procedure: (§1) Form A and F samples were placed in chambers with silica gel to remove water (the relative humidity was measured to be ˜10% RH) at different temperatures. Form D samples were placed in chambers with water (relative humidity was estimated to be ˜100% RH) at different temperatures.
(§2) The HPLC purities and XRD patterns were obtained for each of Form A/F/D samples stored at various temperatures.
Samples of sepiapterin free base polymorph Forms D, F, and A were stored at room temperature (RT), 35° C., and 50° C. The samples were analyzed by HPLC at 1 week and 4 week intervals.

[2] = Storage stability of sepiapterin polymorph forms, form change by XRD; type: physicochemical
Procedure: as §1, §2

[3] = 35° C./10% RH, 1 w, listed as Polymorph F
[4] = 35° C./10% RH, 4 w, listed as Polymorph F
[5] = 50° C./10% RH, 1 w, listed as Polymorph F
[6] = 50° C./10% RH, 4 w, listed as Polymorph F
[7] = RT/10% RH, 1 w, listed as Polymorph F
[8] = RT/10% RH, 4 w, listed as Polymorph F
[9] = storage 4 weeks, 35° C., 10% RH
[10] = storage 4 weeks, 50° C., 10% RH
[11] = storage 1 week, 35° C., 100% RH
[12] = storage 1 week, 50° C., 100% RH
[13] = storage 4 weeks, 35° C., 100% RH
[14] = storage 4 weeks, 50° C., 100% RH

Impurity RRT 0.60 (HPLC) ([1]; 35° C./10% RH, 1 w): <0.05 | Impurity RRT 0.95 (HPLC) [1, 3]: 0.35 | Impurity RRT 1.08 (HPLC) [1, 3]: 0.06 | Impurity RRT 1.17 (HPLC) [1, 3]: 0.15 | Sepiapterin RRT 1.00 (HPLC), amount of sepiapterin [1, 3]: 99.43% | Impurity RRT 0.60 (HPLC) ([1]; 35° C./10% RH, 4 w): <0.05 | Impurity RRT 1.08 (HPLC) ([1]; 35° C./10% RH, 4 w): <0.05 | Impurity RRT 0.95 (HPLC) [1, 4]: 0.42 | Impurity RRT 1.17 (HPLC) [1, 4]: 0.15 | Sepiapterin RRT 1.00 (HPLC), amount of sepiapterin [1, 4]: 99.43% | Impurity RRT 0.60 (HPLC) ([1]; 50° C./10% RH, 1 w): <0.05 | Impurity RRT 0.95 (HPLC) [1, 5]: 0.58 | Impurity RRT 1.08 (HPLC) [1, 5]: 0.11 | Impurity RRT 1.17 (HPLC) [1, 5]: 0.15 | Sepiapterin RRT 1.00 (HPLC), amount of sepiapterin [1, 5]: 99.15% | Impurity RRT 0.60 (HPLC) ([1]; 50° C./10% RH, 4 w): 0.12 | Impurity RRT 1.17 (HPLC) ([1]; 50° C./10% RH, 4 w): 0.17 | Impurity RRT 0.95 (HPLC) [1, 6]: 0.86 | Impurity RRT 1.08 (HPLC) [1, 6]: <0.05 | Sepiapterin RRT 1.00 (HPLC), amount of sepiapterin [1, 6]: 98.85% | Sepiapterin RRT 1.00 (HPLC), amount of sepiapterin ([1]; 50° C./10% RH, 4 w, listed as polymorph F): 98.85% | Impurity RRT 0.60 (HPLC) ([1]; Initial): <0.05 | Impurity RRT 1.08 (HPLC) ([1]; Initial): <0.05 | Impurity RRT 1.17 (HPLC) ([1]; Initial): 0.17 | Impurity RRT 0.95 (HPLC) ([1]; Initial, listed as Polymorph F): 0.09 | Sepiapterin RRT 1.00 (HPLC), amount of sepiapterin ([1]; Initial, listed as Polymorph F): 99.74% | Sepiapterin RRT 1.00 (HPLC), amount of sepiapterin ([1]; Initial, listed as polymorph F): 99.74% | Impurity RRT 0.60 (HPLC) ([1]; RT/10% RH, 1 w): <0.05 | Impurity RRT 1.17 (HPLC) ([1]; RT/10% RH, 1 w): 0.16 | Impurity RRT 0.95 (HPLC) [1, 7]: 0.29 | Impurity RRT 1.08 (HPLC) [1, 7]: 0.14 | Sepiapterin RRT 1.00 (HPLC), amount of sepiapterin [1, 7]: 99.42% | Impurity RRT 0.60 (HPLC) ([1]; RT/10% RH, 4 w): <0.05 | Impurity RRT 1.08 (HPLC) ([1]; RT/10% RH, 4 w): <0.05 | Impurity RRT 1.17 (HPLC) ([1]; RT/10% RH, 4 w): 0.16 | Impurity RRT 0.95 (HPLC) [1, 8]: 0.30 | Sepiapterin RRT 1.00 (HPLC), amount of sepiapterin [1, 8]: 99.54% | Purity of initial samples by HPLC [1]: 99.7 area % | % of Initial ([1]; storage 1 week, 35° C., 10% RH): 99.7% | Purity (area %) ([1]; storage 1 week, 35° C., 10% RH): 99.4 area % | % of Initial ([1]; storage 1 week, 50° C., 10% RH): 99.4% | Purity (area %) ([1]; storage 1 week, 50° C., 10% RH): 99.2 area % | % of Initial ([1]; storage 1 week, RT, 10% RH): 99.7% | Purity (area %) ([1]; storage 1 week, RT, 10% RH): 99.4 area % | % of Initial [1, 9]: 99.7% | Purity (area %) [1, 9]: 99.4 area % | % of Initial [1, 10]: 99.1% | Purity (area %) [1, 10]: 98.9 area % | % of Initial ([1]; storage 4 weeks, RT, 10% RH): 99.8% | Purity (area %) ([1]; storage 4 weeks, RT, 10% RH): 99.5 area % | Form change ([2]; storage 1 week, 35° C., 10% RH): No | Form change ([2]; storage 1 week, 50° C., 10% RH): No | Form change ([2]; storage 1 week, RT, 10% RH): No | Form change [2, 9]: No | Form change [2, 10]: No | Form change ([2]; storage 4 weeks, RT, 10% RH): No
Compound: C[C@H](O)C(=O)C1=Nc2c(nc(N)[nH]c2=O)NC1 [Form F, sepiapterin]
Stability on storage as determined by HPLC, comparison of forms in words ([1]; 35° C., 50° C., listed as polymorph F): significantly greater stability than polymorph A

Impurity RRT 0.62 (HPLC) ([1]; 35° C./100% RH, 1 w): <0.05 | Impurity RRT 0.95 (HPLC) ([1]; 35° C./100% RH, 1 w): 0.86 | Impurity RRT 1.08 (HPLC) ([1]; 35° C./100% RH, 1 w): 0.14 | Impurity RRT 1.17 (HPLC) ([1]; 35° C./100% RH, 1 w): 0.17 | Sepiapterin RRT 1.00 (HPLC), amount of sepiapterin ([1]; 35° C./100% RH, 1 w): 98.83% | Impurity RRT 0.62 (HPLC) ([1]; 35° C./100% RH, 4 w): 0.09 | Impurity RRT 0.95 (HPLC) ([1]; 35° C./100% RH, 4 w): 1.04 | Impurity RRT 1.08 (HPLC) ([1]; 35° C./100% RH, 4 w): <0.05 | Impurity RRT 1.17 (HPLC) ([1]; 35° C./100% RH, 4 w): 0.17 | Sepiapterin RRT 1.00 (HPLC), amount of sepiapterin ([1]; 35° C./100% RH, 4 w): 98.70% | Impurity RRT 0.62 (HPLC) ([1]; 50° C./100% RH, 1 w): 0.08 | Impurity RRT 0.95 (HPLC) ([1]; 50° C./100% RH, 1 w): 1.05 | Impurity RRT 1.08 (HPLC) ([1]; 50° C./100% RH, 1 w): 0.26 | Impurity RRT 1.17 (HPLC) ([1]; 50° C./100% RH, 1 w): 0.16 | Sepiapterin RRT 1.00 (HPLC), amount of sepiapterin ([1]; 50° C./100% RH, 1 w): 98.45% | Impurity RRT 0.62 (HPLC) ([1]; 50° C./100% RH, 4 w): 0.14 | Impurity RRT 0.95 (HPLC) ([1]; 50° C./100% RH, 4 w): 2.03 | Impurity RRT 1.08 (HPLC) ([1]; 50° C./100% RH, 4 w): <0.05 | Impurity RRT 1.17 (HPLC) ([1]; 50° C./100% RH, 4 w): 0.18 | Sepiapterin RRT 1.00 (HPLC), amount of sepiapterin ([1]; 50° C./100% RH, 4 w): 97.65% | Impurity RRT 1.08 (HPLC) ([1]; Initial): <0.05 | Impurity RRT 1.17 (HPLC) ([1]; Initial): 0.17 | Impurity RRT 0.62 (HPLC) ([1]; Initial, listed as Polymorph D): <0.05 | Impurity RRT 0.95 (HPLC) ([1]; Initial, listed as Polymorph D): 0.69 | Sepiapterin RRT 1.00 (HPLC), amount of sepiapterin ([1]; Initial, listed as Polymorph D): 99.14% | Sepiapterin RRT 1.00 (HPLC), amount of sepiapterin ([1]; Initial, listed as polymorph D): 99.14% | Impurity RRT 0.62 (HPLC) ([1]; RT/100% RH, 1 w): <0.05 | Impurity RRT 0.95 (HPLC) ([1]; RT/100% RH, 1 w): 0.83 | Impurity RRT 1.08 (HPLC) ([1]; RT/100% RH, 1 w): <0.05 | Impurity RRT 1.17 (HPLC) ([1]; RT/100% RH, 1 w): 0.16 | Sepiapterin RRT 1.00 (HPLC), amount of sepiapterin ([1]; RT/100% RH, 1 w): 99.01% | Impurity RRT 0.62 (HPLC) ([1]; RT/100% RH, 4 w): 0.09 | Impurity RRT 0.95 (HPLC) ([1]; RT/100% RH, 4 w): 0.81 | Impurity RRT 1.08 (HPLC) ([1]; RT/100% RH, 4 w): <0.05 | Impurity RRT 1.17 (HPLC) ([1]; RT/100% RH, 4 w): 0.17 | Sepiapterin RRT 1.00 (HPLC), amount of sepiapterin ([1]; RT/100% RH, 4 w): 98.92% | Purity of initial samples by HPLC [1]: 99.1 area % | % of Initial [1, 11]: 99.7% | Purity (area %) [1, 11]: 98.8 area % | % of Initial [1, 12]: 99.3% | Purity (area %) [1, 12]: 98.5 area % | % of Initial ([1]; storage 1 week, RT, 100% RH): 99.9% | Purity (area %) ([1]; storage 1 week, RT, 100% RH): 99.0 area % | % of Initial [1, 13]: 99.6% | Purity (area %) [1, 13]: 98.7 area % | % of Initial [1, 14]: 98.5% | Purity (area %) [1, 14]: 97.7 area % | % of Initial ([1]; storage 4 weeks, RT, 100% RH): 99.8% | Purity (area %) ([1]; storage 4 weeks, RT, 100% RH): 98.9 area % | Form change [2, 11]: No | Form change [2, 12]: No | Form change ([2]; storage 1 week, RT, 100% RH): No | Form change [2, 13]: No | Form change [2, 14]: No | Form change ([2]; storage 4 weeks, RT, 100% RH): No
Compound: C[C@H](O)C(=O)C1=Nc2c(nc(N)[nH]c2=O)NC1 [Form D, sepiapterin]
Stability on storage as determined by HPLC, comparison of forms in words ([1]; 35° C., 50° C., listed as polymorph D): significantly greater stability than polymorph A

From patent publication US12325706B2, “Polymorphic form of sepiapterin” (PTC Therapeutics MP, Inc., priority 2016, dated 2025)
